Measured values from ChEMBL document CHEMBL4765407, “Design, synthesis and high antitumor potential of new unsymmetrical bisacridine derivatives towards human solid tumors, specifically pancreatic cancers and their unique ability to stabilize DNA G-quadruplexes” (Eur J Med Chem, 2020).

Legend:
[1] = tested on: DU-145; test: Cytotoxicity against human DU-145 cells assessed as reduction in cell viability measured after 72 hrs by SRB assay; type: functional, cell-based; conditions: DU-145, 72 h
[2] = tested on: HCT-116; test: Cytotoxicity against human HCT-116 cells assessed as reduction in cell viability measured after 72 hrs by SRB assay; type: functional, cell-based; conditions: HCT-116, 72 h
[3] = tested on: MCF7; test: Cytotoxicity against human MCF7 cells assessed as reduction in cell viability measured after 72 hrs by SRB assay; type: functional, cell-based; conditions: MCF7, 72 h
[4] = tested on: MDA-MB-231; test: Cytotoxicity against human MDA-MB-231 cells assessed as reduction in cell viability measured after 72 hrs by SRB assay; type: functional, cell-based; conditions: MDA-MB-231, 72 h
[5] = tested on: PANC-1; test: Cytotoxicity against human PANC-1 cells assessed as reduction in cell viability measured after 72 hrs by SRB assay; type: functional, cell-based; conditions: PANC-1, 72 h
[6] = tested on: MIA PaCa-2; test: Cytotoxicity against human MIA PaCa-2 cells assessed as reduction in cell viability measured after 72 hrs by SRB assay; type: functional, cell-based; conditions: MIA PaCa-2, 72 h
[7] = tested on: BXPC-3; test: Cytotoxicity against human BXPC-3 cells assessed as reduction in cell viability measured after 72 hrs by SRB assay; type: functional, cell-based; conditions: BXPC-3, 72 h
[8] = tested on: ASPC1; test: Cytotoxicity against human ASPC1 cells assessed as reduction in cell viability measured after 72 hrs by SRB assay; type: functional, cell-based; conditions: ASPC1, 72 h
[9] = tested on: Capan-2; test: Cytotoxicity against human Capan-2 cells assessed as reduction in cell viability measured after 72 hrs by SRB assay; type: functional, cell-based; conditions: Capan-2, 72 h
[10] = tested on: PANC-1; test: Antitumour activity against human PANC-1 cells xenografted in Crl:Nu-Foxnl nu mouse assessed as inhibition of tumour growth at total effective dose of 16 mg/kg, iv measured on day 38; type: functional; conditions: PANC-1, iv, 912 h, time 38 day, read-out: TGI
[11] = tested on: PANC-1; test: Antitumour activity against human PANC-1 cells xenografted in Crl:Nu-Foxnl nu mouse assessed as inhibition of tumour growth at total effective dose of 16 mg/kg, iv measured on day 60; type: functional; conditions: PANC-1, iv, 1440 h, time 60 day, read-out: TGI
[12] = tested on: Quadruplex DNA; test: Stabilization of 5'-FAM/3'-TAMRA labeled c-Myc promoter G4 quadruplex DNA FPu18 (unknown origin) assessed as change in melting temperature at 10 microM measured after 15 mins by FRET assay; type: nucleic-acid assay
[13] = tested on: Quadruplex DNA; test: Stabilization of 5'-FAM/3'-TAMRA labeled telomeric G4 quadruplex DNA F21T (unknown origin) assessed as change in melting temperature at 10 microM measured after 15 mins by FRET assay; type: nucleic-acid assay
[14] = tested on: Quadruplex DNA; test: Stabilization of 5'-FAM/3'-TAMRA labeled K-Ras G4 quadruplex DNA (unknown origin) assessed as change in melting temperature at 10 microM measured after 15 mins by FRET assay; type: nucleic-acid assay
[15] = Stabilization of ds 5'-FAM-d(TATAGCTATA-HEG-TATAGCTATA)-TAMRA-3' (unknown origin) assessed as change in melting temperature at 10 microM measured after 15 mins by FRET assay; conditions: Homo sapiens
[16] = tested on: PC-3; test: Cytotoxicity against human PC-3 cells assessed as reduction in cell viability measured after 72 hrs by SRB assay; type: functional, cell-based; conditions: PC-3, 72 h
[17] = tested on: HT-29; test: Cytotoxicity against human HT-29 cells assessed as reduction in cell viability measured after 72 hrs by SRB assay; type: functional, cell-based; conditions: HT-29, 72 h
[18] = tested on: NCI-H460; test: Cytotoxicity against human NCI-H460 cells assessed as reduction in cell viability measured after 72 hrs by SRB assay; type: functional, cell-based; conditions: NCI-H460, 72 h
[19] = tested on: UMUC3; test: Cytotoxicity against human UMUC3 cells assessed as reduction in cell viability measured after 72 hrs by SRB assay; type: functional, cell-based; conditions: UMUC3, 72 h
[20] = tested on: W256; test: Antitumour activity against Walker 256 adenocarcinoma cells implanted in Wistar rat assessed as increase in animal survival rate by measuring T/C ratio at 0.65 mg/kg, ip qd for 3 days administered on day 3,4,5 after tumor cell transplantation; type: functional; conditions: time 3 day
[21] = tested on: NCI-H460; test: Antitumour activity against human NCI-H460 cells xenografted in Crl:Nu-Foxnl nu mouse assessed as inhibition of tumour growth at total effective dose of 5 mg/kg, iv measured on day 15; type: functional; conditions: 360 h, time 15 day, read-out: TGI
[22] = tested on: NCI-H460; test: Antitumour activity against human NCI-H460 cells xenografted in Crl:Nu-Foxnl nu mouse assessed as inhibition of tumour growth at total effective dose of 16 mg/kg, iv measured on day 14; type: functional; conditions: 336 h, time 14 day, read-out: TGI
[23] = tested on: PANC-1; test: Antitumour activity against human PANC-1 cells xenografted in Crl:Nu-Foxnl nu mouse assessed as inhibition of tumour growth at total effective dose of 10 mg/kg, iv measured on day 45; type: functional; conditions: PANC-1, iv, 1080 h, time 45 day, read-out: TGI
[24] = tested on: BXPC-3; test: Antitumour activity against human BXPC-3 cells xenografted in Crl:Nu-Foxnl nu mouse assessed as inhibition of tumour growth at total effective dose of 160 mg/kg, iv measured on day 36; type: functional; conditions: BXPC-3, iv, 864 h, time 36 day, read-out: TGI
[25] = tested on: BXPC-3; test: Antitumour activity against human BXPC-3 cells xenografted in Crl:Nu-Foxnl nu mouse assessed as inhibition of tumour growth at total effective dose of 160 mg/kg, iv measured on day 32; type: functional; conditions: BXPC-3, iv, 768 h, time 32 day, read-out: TGI
[26] = tested on: MDA-MB-231; test: Antitumour activity against human MDA-MB-231 cells xenografted in Crl:Nu-Foxnl nu mouse assessed as inhibition of tumour growth at total effective dose of 120 mg/kg, iv measured on day 32; type: functional; conditions: MDA-MB-231, iv, 768 h, time 32 day, read-out: TGI
[27] = tested on: PANC-1; test: Antitumour activity against human PANC-1 cells xenografted in Crl:Nu-Foxnl nu mouse assessed as inhibition of tumour growth at total effective dose of 8 mg/kg, iv measured on day 32; type: functional; conditions: PANC-1, iv, 768 h, time 32 day, read-out: TGI
[28] = tested on: MIA PaCa-2; test: Antitumour activity against human MIA PaCa-2 cells xenografted in Crl:Nu-Foxnl nu mouse assessed as inhibition of tumour growth at total effective dose of 16 mg/kg, iv measured on day 26; type: functional; conditions: MIA PaCa-2, iv, 624 h, time 26 day, read-out: TGI
[29] = tested on: UMUC3; test: Antitumour activity against human UMUC3 cells xenografted in Crl:Nu-Foxnl nu mouse assessed as inhibition of tumour growth at total effective dose of 28 mg/kg, iv measured on day 23; type: functional; conditions: 552 h, time 23 day, read-out: TGI
[30] = tested on: PANC-1; test: Antitumour activity against human PANC-1 cells xenografted in Crl:Nu-Foxnl nu mouse assessed as inhibition of tumour growth at total effective dose of 10 mg/kg, iv measured on day 31; type: functional; conditions: PANC-1, iv, 744 h, time 31 day, read-out: TGI
[31] = tested on: PANC-1; test: Antitumour activity against human PANC-1 cells xenografted in Crl:Nu-Foxnl nu mouse assessed as inhibition of tumour growth at total effective dose of 36 mg/kg, iv measured on day 45; type: functional; conditions: PANC-1, iv, 1080 h, time 45 day, read-out: TGI
[32] = tested on: PANC-1; test: Antitumour activity against human PANC-1 cells xenografted in Crl:Nu-Foxnl nu mouse assessed as inhibition of tumour growth at total effective dose of 20 mg/kg, iv measured on day 36; type: functional; conditions: PANC-1, iv, 864 h, time 36 day, read-out: TGI
[33] = tested on: PANC-1; test: Antitumour activity against human PANC-1 cells xenografted in Crl:Nu-Foxnl nu mouse assessed as inhibition of tumour growth at total effective dose of 16 mg/kg, iv measured on day 40; type: functional; conditions: PANC-1, iv, 960 h, time 40 day, read-out: TGI
[34] = tested on: MIA PaCa-2; test: Antitumour activity against human MIA PaCa-2 cells xenografted in Crl:Nu-Foxnl nu mouse assessed as inhibition of tumour growth at total effective dose of 42 mg/kg, iv measured on day 26; type: functional; conditions: MIA PaCa-2, iv, 624 h, time 26 day, read-out: TGI
[35] = tested on: MIA PaCa-2; test: Antitumour activity against human MIA PaCa-2 cells xenografted in Crl:Nu-Foxnl nu mouse assessed as inhibition of tumour growth at total effective dose of 8 mg/kg, ip measured on day 15; type: functional; conditions: MIA PaCa-2, ip, 360 h, time 15 day, read-out: TGI
[36] = tested on: BXPC-3; test: Antitumour activity against human BXPC-3 cells xenografted in Crl:Nu-Foxnl nu mouse assessed as inhibition of tumour growth at total effective dose of 30 mg/kg, iv measured on day 37; type: functional; conditions: BXPC-3, iv, 888 h, time 37 day, read-out: TGI

Row | SMILES | IC50 [1] | IC50 [2] | IC50 [3] | IC50 [4] | IC50 [5] | IC50 [6] | IC50 [7] | IC50 [8] | IC50 [9] | ΔTm [12] | ΔTm [13] | ΔTm [14] | ΔTm [15] | IC50 [16] | IC50 [17] | IC50 [18] | IC50 [19] | also measured
1 | O=c1c2ccccc2n2cnc3ccc(NCCNc4c5ccccc5nc5cccc([N+](=O)[O-])c45)c1c32 | 40 nM | 102 nM | 82 nM | 27 nM | 37 nM | 64 nM | 138 nM | 86 nM | 44 nM | 19.3 °C | 31.6 °C | 19.5 °C | 10.4 °C | – | – | – | – | inhibition in vivo at 16 mg/kg [10]: 60%; inhibition in vivo at 16 mg/kg [11]: 76%
2 | CN(CCCNc1c2ccccc2nc2cccc([N+](=O)[O-])c12)CCCNc1ccc([N+](=O)[O-])c2[nH]c3ccccc3c(=O)c12 | 24 nM | 260 nM | 695 nM | 28 nM | 28 nM | 103 nM | – | 66 nM | – | 19.4 °C | 24.5 °C | 27.4 °C | – | 51 nM | 67 nM | 10 nM | 29 nM | T/C [20]: 450%; inhibition in vivo at 5 mg/kg [21]: 14%; inhibition in vivo at 16 mg/kg [22]: 35%; inhibition in vivo at 10 mg/kg [23]: 23%
3 | Cc1cc(NCCCN(C)CCCNc2ccc3ncn4c5ccccc5c(=O)c2c34)c([N+](=O)[O-])c2cc3ccccc3nc12 | 65 nM | 65 nM | – | – | 98 nM | 87 nM | 224 nM | 1180 nM | – | 21.9 °C | 23.3 °C | 23.7 °C | 3.4 °C | – | – | 25 nM | – | inhibition in vivo at 160 mg/kg [24]: 84%; inhibition in vivo at 160 mg/kg [25]: 47%; inhibition in vivo at 120 mg/kg [26]: 62%
4 | O=c1c2cc(O)ccc2n2cnc3ccc(NCCCN4CCN(CCCNc5c6ccccc6nc6cccc([N+](=O)[O-])c56)CC4)c1c32 | 20 nM | 20 nM | 62 nM | 19 nM | 24 nM | 21 nM | 164 nM | 191 nM | 43 nM | 28.5 °C | 9.2 °C | 22.3 °C | 3.8 °C | 35 nM | 81 nM | 17 nM | 18 nM | inhibition in vivo at 8 mg/kg [27]: 51%; inhibition in vivo at 16 mg/kg [28]: 29%; inhibition in vivo at 28 mg/kg [29]: 47%; inhibition in vivo at 10 mg/kg [30]: 71%; inhibition in vivo at 36 mg/kg [31]: 90%; inhibition in vivo at 20 mg/kg [32]: 59%; inhibition in vivo at 16 mg/kg [33]: 82%; inhibition in vivo at 42 mg/kg [34]: 50%; inhibition in vivo at 8 mg/kg [35]: 51%; inhibition in vivo at 30 mg/kg [36]: 64%
